Laboratory results as given in ChEMBL document CHEMBL1268964, “CWJ-081, a novel 3-arylisoquinoline derivative, induces apoptosis in human leukemia HL-60 cells partially involves reactive oxygen species through c-Jun NH2-terminal kinase pathway” (Bioorg Med Chem Lett, 2010).
The source made the active and inactive calls. The rule behind the calls is not given here.

How the values were obtained:
K562 [1] = experiment: Induction of apoptosis in human K562 cells assessed as intercucleosomal DNA fragmentation at 10 uM by […] staining by flow cytometry; type: functional, cell-based; settings: TDE = time-dependent effect
HL-60 [2] = experiment: Induction of apoptosis in human HL60 cells assessed as procaspase 9 cleavage at 10 uM after 36 hrs by Western blot analysis; type: functional, cell-based
HL-60 [3] = experiment: Induction of apoptosis in human HL60 cells assessed as PARP-1 at 10 uM after 36 hrs by Western blot analysis; type: functional, cell-based
U-937 [4] = experiment: Cytotoxicity against human U937 cells by MTT assay; type: functional, cell-based
U-937 [5] = experiment: Induction of apoptosis in human U937 cells assessed as early apoptotic cells at 10 uM by Annexin V staining; type: functional, cell-based; settings: TDE = time-dependent effect
[6] = Cytotoxicity against human Chang cells by MTT assay; type: cell-based
U-937 [7] = experiment: Induction of apoptosis in human U937 cells assessed as intercucleosomal DNA fragmentation at 10 uM by […] staining by flow cytometry; type: functional, cell-based; settings: TDE = time-dependent effect
K562 [8] = experiment: Cytotoxicity against human K562 cells by MTT assay; type: functional, cell-based
[9] = Cytotoxicity against human L-132 cells by MTT assay; type: cell-based; settings: L132
HL-60 [10] = experiment: Induction of apoptosis in human HL60 cells assessed as increase in JNK phosphorylation level at 6 hrs; type: functional, cell-based
HL-60 [11] = experiment: Induction of apoptosis in human HL60 cells assessed as increase in JNK phosphorylation level at 12 hrs; type: functional, cell-based
HL-60 [12] = experiment: Induction of apoptosis in human HL60 cells assessed as Bcl-2 family expression at 10 uM by Western blot analysis; type: functional, cell-based; settings: TDE = time-dependent effect
HL-60 [13] = experiment: Induction of apoptosis in human HL60 cells assessed as increase in ROS production; type: functional, cell-based; settings: TDE = time-dependent effect
K562 [14] = experiment: Induction of apoptosis in human K562 cells assessed as early apoptotic cells at 10 uM by Annexin V staining; type: functional, cell-based; settings: TDE = time-dependent effect
HL-60 [15] = experiment: Induction of apoptosis in human HL60 cells assessed as cytochrome c release from mitochondria at 10 uM after 24 hrs by Western blot analysis; type: functional, cell-based
HL-60 [16] = experiment: Induction of apoptosis in human HL60 cells in presence of 10 uM SP600125 JNK inhibitor; type: functional, cell-based
HL-60 [17] = experiment: Induction of apoptosis in human HL60 cells assessed as early apoptotic cells at 10 uM by Annexin V staining; type: functional, cell-based; settings: TDE = time-dependent effect
HL-60 [18] = experiment: Induction of apoptosis in human HL60 cells assessed as procaspase 3 cleavage at 10 uM after 36 hrs by Western blot analysis; type: functional, cell-based
HL-60 [19] = experiment: Cytotoxicity against human HL60 cells by MTT assay; type: functional, cell-based
HL-60 [20] = experiment: Induction of apoptosis in human HL60 cells assessed as procaspase 8 cleavage at 10 uM after 36 hrs by Western blot analysis; type: functional, cell-based
HL-60 [21] = experiment: Induction of apoptosis in NAC pretreated human HL60 cells assessed as increase in ROS production; type: functional, cell-based
HL-60 [22] = experiment: Induction of apoptosis in human HL60 cells assessed as cytochrome c release from mitochondria at 10 uM after 12 hrs by Western blot analysis; type: functional, cell-based
HL-60 [23] = experiment: Induction of apoptosis in human HL60 cells assessed as Bcl-2 protein expression at 10 uM after 12 hrs by Western blot analysis; type: functional, cell-based
HeLa = experiment: Cytotoxicity against human HeLa cells by MTT assay; type: functional, cell-based
HL-60 [24] = experiment: Induction of apoptosis in human HL60 cells assessed as Bax protein expression at 10 uM after 12 hrs by Western blot analysis; type: functional, cell-based
HL-60 [25] = experiment: Induction of apoptosis in NAC pretreated human HL60 cells assessed as increase in JNK phosphorylation level; type: functional, cell-based
[26] = Cytotoxicity against human IOSE-80PC cells by MTT assay; type: cell-based
HL-60 [27] = experiment: Induction of apoptosis in human HL60 cells assessed as intercucleosomal DNA fragmentation at 10 uM by […] staining by flow cytometry; type: functional, cell-based; settings: TDE = time-dependent effect
HL-60 [28] = experiment: Induction of apoptosis in human HL60 cells assessed as loss of mitochondrial membrane potential at 50 uM after 24 hrs by DiOC6 staining; type: functional, cell-based
Ca-Ski = experiment: Cytotoxicity against human CaSki cells by MTT assay; type: functional, cell-based
HL-60 [29] = experiment: Induction of apoptosis in human HL60 cells assessed as increase in ROS production in presence of 10 mM NAC; type: functional, cell-based

Structure (SMILES): CCc1cc2c(cc1-c1cc3ccc(OC)c(OC)c3c(=O)n1C)OCO2
- Activity (K562 [1]): tde
- Activity (HL-60 [2]): Active
- Activity (HL-60 [3]): Active
- IC50 (U-937 [4]): 33.2 µM
- Activity (U-937 [5]): tde
- IC50 [6]: 39.9 µM
- Activity (U-937 [7]): tde
- IC50 (K562 [8]): 38.1 µM
- IC50 [9]: 59.4 µM
- Activity (HL-60 [10]): Active
- Activity (HL-60 [11]): inactive
- Activity (HL-60 [12]): tde
- Activity (HL-60 [13]): tde
- Activity (K562 [14]): tde
- Activity (HL-60 [15]): Active
- Activity (HL-60 [16]): Active
- Activity (HL-60 [17]): tde
- Activity (HL-60 [18]): Active
- IC50 (HL-60 [19]): 5.62 µM
- Activity (HL-60 [20]): Active
- Activity (HL-60 [21]): inactive
- Activity (HL-60 [22]): Active
- Activity (HL-60 [23]): Active
- IC50 (HeLa): 42.2 µM
- Activity (HL-60 [24]): Active
- Activity (HL-60 [25]): inactive
- IC50 [26]: 68 µM
- Activity (HL-60 [27]): tde
- Activity (HL-60 [28]): Active
- IC50 (Ca-Ski): 47.3 µM
- Activity (HL-60 [29]): inactive
